Columns and labels:
CLK3 = CLK3 (Homo sapiens, UniProt P49761); conditions: 1 μM; Run 1, Run 2
HIPK1 = HIPK1 (Homo sapiens, UniProt Q86Z02); conditions: 1 μM; Run 1, Run 2
PKCb1 = PKCb1 (Homo sapiens, UniProt P05771); conditions: 1 μM; Run 1, Run 2
PLK1 = PLK1 (Homo sapiens, UniProt P53350); conditions: 1 μM; Run 1, Run 2
ASK1/MAP3K5 = target: T1, ASK1/MAP3K5 (Homo sapiens, UniProt Q99683); assay: biochemical; conditions: read-out: % enzyme activity, 1 μM; Run 1, Run 2
T1 sequence (Q99683 1-1374): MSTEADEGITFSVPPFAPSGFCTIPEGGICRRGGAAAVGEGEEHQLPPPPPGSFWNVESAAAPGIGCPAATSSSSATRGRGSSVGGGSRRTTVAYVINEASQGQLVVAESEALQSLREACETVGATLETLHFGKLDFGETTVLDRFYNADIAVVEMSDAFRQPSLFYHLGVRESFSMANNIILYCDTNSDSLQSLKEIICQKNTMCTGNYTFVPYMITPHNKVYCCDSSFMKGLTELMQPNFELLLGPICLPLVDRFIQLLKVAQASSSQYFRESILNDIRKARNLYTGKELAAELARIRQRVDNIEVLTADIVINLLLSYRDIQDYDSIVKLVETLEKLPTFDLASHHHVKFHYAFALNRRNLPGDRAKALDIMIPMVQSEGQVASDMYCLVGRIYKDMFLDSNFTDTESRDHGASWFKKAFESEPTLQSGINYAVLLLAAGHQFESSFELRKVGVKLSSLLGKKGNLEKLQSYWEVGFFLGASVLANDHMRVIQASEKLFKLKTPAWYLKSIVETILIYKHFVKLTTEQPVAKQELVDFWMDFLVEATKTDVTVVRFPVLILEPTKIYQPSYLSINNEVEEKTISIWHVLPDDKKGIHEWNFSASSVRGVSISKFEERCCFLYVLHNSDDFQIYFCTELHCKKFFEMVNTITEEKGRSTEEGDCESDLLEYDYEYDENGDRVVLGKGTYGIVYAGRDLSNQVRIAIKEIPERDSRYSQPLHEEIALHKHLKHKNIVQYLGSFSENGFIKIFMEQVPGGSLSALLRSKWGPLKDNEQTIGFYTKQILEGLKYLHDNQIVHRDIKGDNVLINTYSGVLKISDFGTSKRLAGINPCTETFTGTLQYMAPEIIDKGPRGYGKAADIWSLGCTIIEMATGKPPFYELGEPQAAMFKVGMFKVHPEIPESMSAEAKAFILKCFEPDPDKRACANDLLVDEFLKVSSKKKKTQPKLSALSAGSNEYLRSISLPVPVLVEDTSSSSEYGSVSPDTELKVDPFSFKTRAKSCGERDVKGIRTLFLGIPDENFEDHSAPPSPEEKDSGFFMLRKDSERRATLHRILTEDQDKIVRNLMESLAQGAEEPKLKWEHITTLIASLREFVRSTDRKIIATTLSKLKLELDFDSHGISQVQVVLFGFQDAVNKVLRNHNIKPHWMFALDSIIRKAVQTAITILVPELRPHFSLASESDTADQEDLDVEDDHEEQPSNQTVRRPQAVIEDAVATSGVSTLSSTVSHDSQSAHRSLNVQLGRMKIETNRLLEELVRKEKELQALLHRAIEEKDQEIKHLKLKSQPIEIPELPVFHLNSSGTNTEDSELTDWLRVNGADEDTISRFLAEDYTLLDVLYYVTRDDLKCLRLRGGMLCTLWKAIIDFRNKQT

CDK6/cyclin D3 = CDK6/cyclin D3 (Homo sapiens, UniProt Q00534); assay: biochemical; conditions: read-out: % enzyme activity, 1 μM; Run 1, Run 2
Chain of CDK6/cyclin D3 (Q00534 whole entry): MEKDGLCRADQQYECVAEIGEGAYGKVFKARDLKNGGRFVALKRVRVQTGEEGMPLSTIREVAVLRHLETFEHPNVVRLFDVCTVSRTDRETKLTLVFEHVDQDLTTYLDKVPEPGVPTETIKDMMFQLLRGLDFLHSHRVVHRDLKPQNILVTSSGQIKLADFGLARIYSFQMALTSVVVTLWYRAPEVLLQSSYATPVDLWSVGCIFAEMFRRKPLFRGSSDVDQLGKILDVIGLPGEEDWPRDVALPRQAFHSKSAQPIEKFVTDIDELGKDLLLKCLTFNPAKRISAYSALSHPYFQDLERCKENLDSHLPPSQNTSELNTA
Chain of CDK6/cyclin D3 (P30281 whole entry partner): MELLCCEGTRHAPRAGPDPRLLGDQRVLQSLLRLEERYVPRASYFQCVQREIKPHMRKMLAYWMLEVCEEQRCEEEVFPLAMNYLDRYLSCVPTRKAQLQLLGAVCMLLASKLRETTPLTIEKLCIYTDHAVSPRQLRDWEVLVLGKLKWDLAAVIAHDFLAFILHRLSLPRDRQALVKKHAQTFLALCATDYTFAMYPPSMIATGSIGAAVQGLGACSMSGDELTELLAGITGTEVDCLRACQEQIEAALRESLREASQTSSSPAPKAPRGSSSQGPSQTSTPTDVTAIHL

CK1a1L = target: T2, CK1a1L (Homo sapiens, UniProt Q8N752); assay: biochemical; conditions: read-out: % enzyme activity, 1 μM; Run 1, Run 2
T2 sequence (Q8N752 1-337): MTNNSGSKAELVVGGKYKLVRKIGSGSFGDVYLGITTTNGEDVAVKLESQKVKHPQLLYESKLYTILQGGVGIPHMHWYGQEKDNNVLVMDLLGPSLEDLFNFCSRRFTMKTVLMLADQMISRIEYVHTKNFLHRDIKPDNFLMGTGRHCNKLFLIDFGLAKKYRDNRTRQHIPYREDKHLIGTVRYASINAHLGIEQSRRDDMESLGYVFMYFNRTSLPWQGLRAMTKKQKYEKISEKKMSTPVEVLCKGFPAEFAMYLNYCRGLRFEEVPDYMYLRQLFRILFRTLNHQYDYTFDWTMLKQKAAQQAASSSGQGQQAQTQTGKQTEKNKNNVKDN

HIPK4 = target: T3, HIPK4 (Homo sapiens, UniProt Q8NE63); assay: biochemical; conditions: read-out: % enzyme activity, 1 μM; Run 1, Run 2
T3 sequence (Q8NE63 1-616): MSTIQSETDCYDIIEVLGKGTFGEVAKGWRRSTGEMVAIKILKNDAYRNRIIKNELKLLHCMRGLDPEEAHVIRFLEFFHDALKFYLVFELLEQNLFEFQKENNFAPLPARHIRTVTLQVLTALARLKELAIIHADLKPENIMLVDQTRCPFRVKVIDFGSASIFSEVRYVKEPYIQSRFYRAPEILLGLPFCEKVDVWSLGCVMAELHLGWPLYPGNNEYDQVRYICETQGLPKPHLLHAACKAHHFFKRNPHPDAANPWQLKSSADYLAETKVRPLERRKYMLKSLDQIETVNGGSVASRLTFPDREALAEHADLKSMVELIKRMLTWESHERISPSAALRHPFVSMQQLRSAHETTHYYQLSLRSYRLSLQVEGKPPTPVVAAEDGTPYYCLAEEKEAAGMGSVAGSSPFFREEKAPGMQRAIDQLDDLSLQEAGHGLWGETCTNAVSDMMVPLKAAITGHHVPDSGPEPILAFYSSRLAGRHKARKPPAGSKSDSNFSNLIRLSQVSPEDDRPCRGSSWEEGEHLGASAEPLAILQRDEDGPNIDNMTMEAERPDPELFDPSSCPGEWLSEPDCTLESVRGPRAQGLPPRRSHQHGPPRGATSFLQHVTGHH

MSSK1/STK23 = MSSK1/STK23 (Homo sapiens, UniProt Q9UPE1); assay: biochemical; conditions: read-out: % enzyme activity, 1 μM; Run 1, Run 2
Chain of MSSK1/STK23 (Q9UPE1 whole entry): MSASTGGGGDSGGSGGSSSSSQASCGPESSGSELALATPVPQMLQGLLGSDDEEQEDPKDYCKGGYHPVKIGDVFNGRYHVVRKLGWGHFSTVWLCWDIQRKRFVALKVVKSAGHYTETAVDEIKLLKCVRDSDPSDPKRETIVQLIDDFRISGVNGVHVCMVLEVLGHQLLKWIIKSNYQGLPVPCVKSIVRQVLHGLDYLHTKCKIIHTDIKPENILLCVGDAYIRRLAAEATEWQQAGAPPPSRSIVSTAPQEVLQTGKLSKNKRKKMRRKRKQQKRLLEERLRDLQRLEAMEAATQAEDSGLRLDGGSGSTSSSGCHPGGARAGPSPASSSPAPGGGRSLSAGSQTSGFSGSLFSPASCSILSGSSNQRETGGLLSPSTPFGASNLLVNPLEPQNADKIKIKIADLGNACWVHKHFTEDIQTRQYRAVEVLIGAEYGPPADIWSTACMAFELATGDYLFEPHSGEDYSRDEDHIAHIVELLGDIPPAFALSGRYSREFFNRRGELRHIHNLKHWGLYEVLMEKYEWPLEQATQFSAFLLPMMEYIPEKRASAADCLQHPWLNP

Chain of PKCb1 (P05771 whole entry): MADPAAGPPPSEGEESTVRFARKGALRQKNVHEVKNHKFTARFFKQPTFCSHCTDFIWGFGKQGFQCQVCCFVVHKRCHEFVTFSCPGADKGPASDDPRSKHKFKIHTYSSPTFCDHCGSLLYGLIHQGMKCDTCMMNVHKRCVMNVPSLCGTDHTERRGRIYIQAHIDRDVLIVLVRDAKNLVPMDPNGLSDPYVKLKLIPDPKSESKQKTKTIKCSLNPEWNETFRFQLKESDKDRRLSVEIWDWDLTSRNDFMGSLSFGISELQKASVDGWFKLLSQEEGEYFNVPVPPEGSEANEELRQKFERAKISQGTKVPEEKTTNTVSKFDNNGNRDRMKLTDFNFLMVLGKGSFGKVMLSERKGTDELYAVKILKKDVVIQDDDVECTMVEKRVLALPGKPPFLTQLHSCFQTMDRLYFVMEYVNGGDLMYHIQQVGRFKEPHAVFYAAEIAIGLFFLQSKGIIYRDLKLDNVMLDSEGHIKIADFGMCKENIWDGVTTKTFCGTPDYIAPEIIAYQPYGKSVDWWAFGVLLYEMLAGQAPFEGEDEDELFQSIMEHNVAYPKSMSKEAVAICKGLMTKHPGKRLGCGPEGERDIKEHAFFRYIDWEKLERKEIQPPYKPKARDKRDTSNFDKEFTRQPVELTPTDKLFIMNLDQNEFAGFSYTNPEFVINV
Chain of CLK3 (P49761 whole entry): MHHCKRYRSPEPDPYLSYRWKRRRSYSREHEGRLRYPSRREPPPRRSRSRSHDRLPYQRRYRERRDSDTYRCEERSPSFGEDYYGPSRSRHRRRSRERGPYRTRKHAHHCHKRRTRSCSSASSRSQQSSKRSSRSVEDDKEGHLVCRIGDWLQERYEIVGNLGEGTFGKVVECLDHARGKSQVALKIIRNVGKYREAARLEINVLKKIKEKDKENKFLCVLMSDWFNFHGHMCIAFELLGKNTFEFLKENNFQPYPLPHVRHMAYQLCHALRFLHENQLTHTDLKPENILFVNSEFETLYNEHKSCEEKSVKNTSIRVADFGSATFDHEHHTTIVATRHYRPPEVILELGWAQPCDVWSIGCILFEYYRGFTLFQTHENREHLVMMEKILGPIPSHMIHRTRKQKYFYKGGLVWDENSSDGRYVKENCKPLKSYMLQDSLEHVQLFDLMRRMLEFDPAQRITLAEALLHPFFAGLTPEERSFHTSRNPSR
Chain of PLK1 (P53350 whole entry): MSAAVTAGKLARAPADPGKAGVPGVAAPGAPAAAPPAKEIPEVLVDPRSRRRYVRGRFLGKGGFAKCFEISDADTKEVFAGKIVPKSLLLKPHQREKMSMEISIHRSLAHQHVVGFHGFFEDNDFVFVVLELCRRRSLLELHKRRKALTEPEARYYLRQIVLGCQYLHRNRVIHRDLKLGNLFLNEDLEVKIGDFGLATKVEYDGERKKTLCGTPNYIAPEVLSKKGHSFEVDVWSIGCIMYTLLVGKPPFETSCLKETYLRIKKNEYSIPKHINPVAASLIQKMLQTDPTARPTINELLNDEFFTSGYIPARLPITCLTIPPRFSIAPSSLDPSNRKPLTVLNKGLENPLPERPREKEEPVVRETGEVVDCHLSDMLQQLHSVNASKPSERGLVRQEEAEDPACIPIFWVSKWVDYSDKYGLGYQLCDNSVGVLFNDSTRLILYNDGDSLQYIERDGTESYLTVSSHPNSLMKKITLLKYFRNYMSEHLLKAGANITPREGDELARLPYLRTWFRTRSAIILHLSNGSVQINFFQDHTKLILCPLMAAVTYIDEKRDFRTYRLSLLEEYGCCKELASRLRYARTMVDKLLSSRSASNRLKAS
Chain of HIPK1 (Q86Z02 whole entry): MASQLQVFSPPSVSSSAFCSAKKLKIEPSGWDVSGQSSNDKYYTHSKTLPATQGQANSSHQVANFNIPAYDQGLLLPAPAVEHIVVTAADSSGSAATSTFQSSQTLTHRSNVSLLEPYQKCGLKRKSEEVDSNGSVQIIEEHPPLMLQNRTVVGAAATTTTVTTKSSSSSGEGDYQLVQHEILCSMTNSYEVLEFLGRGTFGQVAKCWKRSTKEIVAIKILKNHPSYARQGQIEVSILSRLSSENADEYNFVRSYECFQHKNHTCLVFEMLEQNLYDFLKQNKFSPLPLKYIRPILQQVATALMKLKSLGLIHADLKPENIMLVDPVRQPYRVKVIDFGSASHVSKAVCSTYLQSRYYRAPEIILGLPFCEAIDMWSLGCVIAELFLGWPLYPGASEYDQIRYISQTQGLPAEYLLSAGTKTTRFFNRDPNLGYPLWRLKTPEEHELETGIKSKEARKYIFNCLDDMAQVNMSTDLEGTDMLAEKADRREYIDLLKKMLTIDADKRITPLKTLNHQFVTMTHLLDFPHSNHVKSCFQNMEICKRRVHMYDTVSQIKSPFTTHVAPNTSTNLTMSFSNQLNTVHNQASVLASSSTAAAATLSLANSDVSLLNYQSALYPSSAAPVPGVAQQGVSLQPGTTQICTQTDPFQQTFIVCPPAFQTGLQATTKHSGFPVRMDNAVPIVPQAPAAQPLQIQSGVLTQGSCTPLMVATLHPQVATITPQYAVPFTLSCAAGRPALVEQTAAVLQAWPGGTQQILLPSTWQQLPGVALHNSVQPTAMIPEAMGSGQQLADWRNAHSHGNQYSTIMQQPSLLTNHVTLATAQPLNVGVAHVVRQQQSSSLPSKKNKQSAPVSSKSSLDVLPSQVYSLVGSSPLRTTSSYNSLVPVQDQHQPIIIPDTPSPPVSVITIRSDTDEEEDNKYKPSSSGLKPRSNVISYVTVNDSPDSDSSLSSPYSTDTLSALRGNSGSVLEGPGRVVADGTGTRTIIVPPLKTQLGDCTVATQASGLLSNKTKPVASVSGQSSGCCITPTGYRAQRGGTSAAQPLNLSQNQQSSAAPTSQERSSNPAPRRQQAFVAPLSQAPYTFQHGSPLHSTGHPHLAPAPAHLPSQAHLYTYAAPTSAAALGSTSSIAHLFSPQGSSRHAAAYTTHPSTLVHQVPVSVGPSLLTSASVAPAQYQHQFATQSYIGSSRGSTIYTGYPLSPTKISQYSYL

Question: With `COc1cc(-c2cncc(-c3ccc(N4CCN(C)CC4)cc3)c2C)cc(F)c1C(N)=O` [Compound 26a, 2-Fluoro-6-methoxy-4-(4-methyl-5-(4-(4-methylpiperazin-1-yl)phenyl)pyridin-3-yl)benzamide] as the molecule, how does the “% enzyme activity” value (CLK3) read?
Answer: 99.59%

Question: What about the “% enzyme activity” value (HIPK1) of the same molecule?
Answer: 102.36%

Question: What about the “% enzyme activity” value (PKCb1) of the same molecule?
Answer: 82.63%

Question: And the “% enzyme activity” value (PLK1)?
Answer: 91.24%

Question: What about the remaining activity at 1 µM (ASK1/MAP3K5) of the same molecule?
Answer: 95.5%

Question: What about the remaining activity at 1 µM (CDK6/cyclin D3) of the same molecule?
Answer: 86.3%

Question: And the remaining activity at 1 µM (CK1a1L)?
Answer: 98.4%

Question: What about the remaining activity at 1 µM (HIPK4) of the same molecule?
Answer: 104%

Question: And the remaining activity at 1 µM (MSSK1/STK23)?
Answer: 99.3%

Question: How did the “% enzyme activity” value (CLK3) turn out when `COc1cc(-c2cncc(-c3ccc(N4C[C@@H](C)N(C)[C@@H](C)C4)cc3)c2C)cc(F)c1C(N)=O` [Compound 26c, 2-Fluoro-6-methoxy-4-(4-methyl-5-(4-((3R,5S)-3,4,5-trimethylpiperazin-1-yl)phenyl)pyridin-3-yl)benzamide] was run?
Answer: 86.89%

Question: And the “% enzyme activity” value (HIPK1)?
Answer: 96.64%

Question: What about the “% enzyme activity” value (PKCb1) of the same molecule?
Answer: 83.58%

Question: What about the “% enzyme activity” value (PLK1) of the same molecule?
Answer: 92.70%

Question: And the remaining activity at 1 µM (ASK1/MAP3K5)?
Answer: 97.8%

Question: What about the remaining activity at 1 µM (CDK6/cyclin D3) of the same molecule?
Answer: 103%

Question: And the remaining activity at 1 µM (CK1a1L)?
Answer: 99.4%

Question: And the remaining activity at 1 µM (HIPK4)?
Answer: 101%

Question: What about the remaining activity at 1 µM (MSSK1/STK23) of the same molecule?
Answer: 99.8%
